Test results as given in the supplement of paper PMC10307832.

What was measured:
Assay in all cases: relative viability (nuclei count vs DMSO), 5 days (fraction); higher = more cells survive
[1] = compound: C#Cc1cccc(Nc2ncnc3cc(OC)c(OCCCCCCC(=O)NO)cc23)c1 [CUDC-101] + COc1cccc2cc(-c3nc([C@H]4CC[C@H](C(=O)O)CC4)n4ncnc(N)c34)[nH]c12 [OSI-027] (partner 0.5 µM)
Outline: (§1)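 Dosing by pin tool came one day after lung cancer cell lines were seeded in 1536-well plates, using either one drug or a fixed anchor-drug dose plus five library-drug doses (not always all listed) in √10 steps. After 5 days, nuclei were counted on 4× images. Relative viability is treated-well nuclei count divided by vehicle-well nuclei count, and values are medians of duplicate plates.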

[2] = compound: C#Cc1cccc(Nc2ncnc3cc(OC)c(OCCCCCCC(=O)NO)cc23)c1 [CUDC-101] + CCNC(=O)c1noc(-c2cc(C(C)C)c(O)cc2O)c1-c1ccc(CN2CCOCC2)cc1 [Luminespib] (partner 0.01 µM)
Outline: as §1

[3] = compound: C1=CC=C2C(=C1)N=C(S2)C(C#N)C3=NC(=NC=C3)NCCC4=CN=CC=C4 + O=C(c1cc(Cc2n[nH]c(=O)c3ccccc23)ccc1F)N1CCN(C(=O)C2CC2)CC1 [Olaparib] (partner 8 µM)
Outline: as §1

[4] = compound: C1=CC=C2C(=C1)N=C(S2)C(C#N)C3=NC(=NC=C3)NCCC4=CN=CC=C4 + Nc1nc2[nH]cc(CCc3ccc(C(=O)N[C@@H](CCC(=O)O)C(=O)O)cc3)c2c(=O)[nH]1 [Pemetrexed] (partner 0.2 µM)
Outline: as §1

Cell Line	relative viability ([1]; first compound 0.01 µM)	relative viability ([1]; first compound 0.03162 µM)	relative viability ([1]; first compound 0.1 µM)	relative viability ([1]; first compound 0.3162 µM)	relative viability ([1]; first compound 1 µM)	relative viability ([2]; first compound 0.01 µM)	relative viability ([2]; first compound 0.03162 µM)	relative viability ([2]; first compound 0.1 µM)	relative viability ([2]; first compound 0.3162 µM)	relative viability ([2]; first compound 1 µM)	relative viability ([3]; first compound 0.005 µM)	relative viability ([3]; first compound 0.01581 µM)	relative viability ([3]; first compound 0.05 µM)	relative viability ([3]; first compound 0.1581 µM)	relative viability ([3]; first compound 0.5 µM)	relative viability ([4]; first compound 0.005 µM)	relative viability ([4]; first compound 0.01581 µM)	relative viability ([4]; first compound 0.05 µM)	relative viability ([4]; first compound 0.1581 µM)	relative viability ([4]; first compound 0.5 µM)
NCI-H2405	0.643	0.613	0.721	0.734	0.541	0.797	0.662	0.703	0.917	0.741	0.797	0.835	0.897	0.867	0.77	1.14	0.998	1.07	1.1	0.98
NCI-H2087	0.473	0.548	0.463	0.679	0.561	0.174	0.186	0.176	0.177	0.198	0.385	0.562	0.509	0.759	0.433	0.616	0.661	0.634	0.645	0.645
NCI-H2023	0.433	0.461	0.432	0.488	0.325	0.807	0.568	0.855	0.797	0.632	0.508	0.543	0.562	0.541	0.447	0.211	0.26	0.205	0.264	0.213
NCI-H3122	0.909	1.07	1.03	1.14	0.927	0.118	0.0939	0.0988	0.112	0.0815	0.671	0.655	0.691	0.788	0.885	0.187	0.197	0.206	0.214	0.194
ChaGo-K-1	0.527	0.579	0.541	0.538	0.43	0.74	0.522	0.625	0.709	0.609	0.372	0.425	0.408	0.421	0.402	0.249	0.263	0.293	0.255	0.256
NCI-H2347	0.313	0.38	0.402	0.469	0.25	0.617	0.458	0.47	0.415	0.331	0.607	0.611	0.627	0.642	0.525	0.405	0.515	0.471	0.409	0.461
NCI-H460	0.701	0.62	0.734	0.762	0.555	0.0424	0.0301	0.0366	0.0315	0.0288	0.4	0.502	0.43	0.516	0.333	–	0.0618	0.0556	0.0607	0.0831
HCC-827	0.813	0.46	0.177	0.144	0.136	0.531	0.241	0.278	0.217	0.197	0.568	0.616	0.728	0.657	0.566	0.238	0.239	0.25	0.264	0.259
HOP-62	0.862	0.842	0.896	0.924	0.567	0.931	0.875	0.902	0.859	0.794	0.741	0.368	0.408	0.265	0.191	0.344	0.337	0.33	0.345	0.351
NCI-H1792	0.777	0.649	0.731	0.715	0.629	0.459	0.381	0.578	0.504	0.25	–	0.709	0.427	0.38	0.215	–	0.889	0.875	1.22	0.335
HCC-15	0.697	0.696	0.674	0.73	0.584	0.169	0.279	0.299	0.559	0.596	0.663	0.727	0.662	0.837	0.686	0.215	0.23	0.223	0.228	0.227
NCI-H1755	0.624	0.729	0.794	0.781	0.571	0.602	0.302	0.496	0.576	0.394	0.914	0.994	0.881	1.06	0.943	0.456	0.466	0.413	0.441	0.424
NCI-H23	0.71	0.647	0.631	0.607	0.509	0.197	0.204	0.209	0.207	0.197	–	0.33	0.276	0.303	0.282	–	0.511	0.701	0.779	0.641
BEN	0.336	0.259	0.348	0.281	0.292	0.534	0.402	0.467	0.302	0.37	0.976	1.21	1.03	1.05	0.853	0.751	0.627	0.773	0.883	0.741
NCI-H1651	0.707	0.67	0.746	0.912	0.679	0.787	0.77	0.811	0.991	0.839	0.178	0.17	0.172	0.182	0.163	0.41	0.527	0.597	0.708	0.381
NCI-H2126	0.678	0.659	0.662	0.668	0.508	1.03	0.871	0.938	0.891	0.793	0.771	0.945	0.887	0.978	0.75	0.577	0.73	0.652	0.69	0.726
